{"source": "ChEMBL document CHEMBL1157116", "about": "“Synthesis of novel benzocoumarin derivatives as lipid lowering agents” (2010)", "assay_type_in_all_cases": "functional", "parameters_in_all_cases": "scale not given: the % may be the effect or the level left", "key": {"Rattus norvegicus [1]": {"system": "Rattus norvegicus", "assay": "Antihyperlipidemic activity in Charles Foster rat assessed as reduction of triton WR-1339-induced plasma triglyceride level at 100 mg/kg, po after 18 hrs by spectrophotometric analysis"}, "Rattus norvegicus [2]": {"system": "Rattus norvegicus", "assay": "Antihyperlipidemic activity in Charles Foster rat assessed as reduction of triton WR-1339-induced plasma total cholesterol level at 100 mg/kg, po after 18 hrs by spectrophotometric analysis"}, "Rattus norvegicus [3]": {"system": "Rattus norvegicus", "assay": "Antihyperlipidemic activity in Charles Foster rat assessed as reduction of triton WR-1339-induced plasma phospholipid level at 100 mg/kg, po after 18 hrs by spectrophotometric analysis"}, "Rattus norvegicus [4]": {"system": "Rattus norvegicus", "assay": "Antihyperlipidemic activity in Charles Foster rat assessed as reduction of triton WR-1339-induced plasma post heparin lipolytic activity at 100 mg/kg, po after 18 hrs by spectrophotometric analysis"}, "[5]": {"assay": "Antioxidant activity assessed as inhibition of xanthine-xanthine oxidase generated superoxide anion radical production assessed as formazone formation at 100 ug/ml after 30 mins by spectrophotometric analysis"}, "[6]": {"assay": "Antioxidant activity assessed as inhibition microsomal lipid peroxidation assessed as malondialdehyde formation at 100 ug/ml by thiobarbituric acid test", "details": "Microsome"}, "[7]": {"assay": "Antioxidant activity assessed as inhibition non-enzymatic reactants generated hydroxyl radical production at 100 ug/ml after 90 mins by spectrophotometry"}, "[8]": {"assay": "Antioxidant activity assessed as inhibition of xanthine-xanthine oxidase generated superoxide anion radical production assessed as formazone formation at 20 ug/ml after 30 mins by spectrophotometric analysis"}, "[9]": {"assay": "Antioxidant activity assessed as inhibition non-enzymatic reactants generated hydroxyl radical production at 20 ug/ml after 90 mins by spectrophotometry"}, "Rattus norvegicus [10]": {"system": "Rattus norvegicus", "assay": "Antihyperlipidemic activity in Charles Foster rat assessed as reduction of triton WR-1339-induced plasma triglyceride level at 25 mg/kg, po after 18 hrs by spectrophotometric analysis"}, "Rattus norvegicus [11]": {"system": "Rattus norvegicus", "assay": "Antihyperlipidemic activity in Charles Foster rat assessed as reduction of triton WR-1339-induced plasma phospholipid level at 25 mg/kg, po after 18 hrs by spectrophotometric analysis"}, "Rattus norvegicus [12]": {"system": "Rattus norvegicus", "assay": "Antihyperlipidemic activity in Charles Foster rat assessed as reduction of triton WR-1339-induced plasma total cholesterol level at 25 mg/kg, po after 18 hrs by spectrophotometric analysis"}, "[13]": {"assay": "Antioxidant activity assessed as inhibition microsomal lipid peroxidation assessed as malondialdehyde formation at 20 ug/ml by thiobarbituric acid test", "details": "Microsome"}}, "data": [{"molecule": "Cc1ccc(C)c(OCCCC(C)(C)C(=O)O)c1", "note": "[GEMFIBROZIL]", "values": [{"measurement": "Activity", "setting": "Rattus norvegicus [1]", "result": 31, "unit": "%"}, {"measurement": "Activity", "setting": "Rattus norvegicus [2]", "result": 36, "unit": "%"}, {"measurement": "Activity", "setting": "Rattus norvegicus [3]", "result": 35, "unit": "%"}, {"measurement": "Activity", "setting": "Rattus norvegicus [4]", "result": 24, "unit": "%"}]}, {"molecule": "CCOC(=O)COc1cccc2c1ccc1c(C)cc(=O)oc12", "values": [{"measurement": "Activity", "setting": "[5]", "result": 28, "unit": "%"}, {"measurement": "Activity", "setting": "[6]", "result": 37, "unit": "%"}, {"measurement": "Activity", "setting": "[7]", "result": 38, "unit": "%"}]}, {"molecule": "Oc1ncnc2[nH]ncc12", "values": [{"measurement": "Activity", "setting": "[8]", "result": 86, "unit": "%"}]}, {"molecule": "OC[C@@H](O)[C@@H](O)[C@H](O)[C@H](O)CO", "values": [{"measurement": "Activity", "setting": "[9]", "result": 48, "unit": "%"}]}, {"molecule": "Cc1cc(=O)oc2c1ccc1c(OCc3ccccc3)cccc12", "values": [{"measurement": "Activity", "setting": "Rattus norvegicus [10]", "result": 23, "unit": "%"}, {"measurement": "Activity", "setting": "Rattus norvegicus [1]", "result": 28, "unit": "%"}, {"measurement": "Activity", "setting": "Rattus norvegicus [2]", "result": 28, "unit": "%"}, {"measurement": "Activity", "setting": "[5]", "result": 40, "unit": "%"}, {"measurement": "Activity", "setting": "Rattus norvegicus [11]", "result": 24, "unit": "%"}, {"measurement": "Activity", "setting": "Rattus norvegicus [12]", "result": 26, "unit": "%"}, {"measurement": "Activity", "setting": "[6]", "result": 38, "unit": "%"}, {"measurement": "Activity", "setting": "Rattus norvegicus [3]", "result": 29, "unit": "%"}, {"measurement": "Activity", "setting": "Rattus norvegicus [4]", "result": 18, "unit": "%"}, {"measurement": "Activity", "setting": "[7]", "result": 41, "unit": "%"}]}, {"molecule": "Cc1c(C)c2c(c(C)c1O)CC[C@@](C)(CCC[C@H](C)CCC[C@H](C)CCCC(C)C)O2", "values": [{"measurement": "Activity", "setting": "[13]", "result": 45, "unit": "%"}]}, {"molecule": "Cc1cc(=O)oc2c1ccc1c(OC(C)c3ccccc3)cccc12", "note": "(stereo not drawn)", "values": [{"measurement": "Activity", "setting": "Rattus norvegicus [1]", "result": 22, "unit": "%"}, {"measurement": "Activity", "setting": "Rattus norvegicus [2]", "result": 23, "unit": "%"}, {"measurement": "Activity", "setting": "Rattus norvegicus [3]", "result": 26, "unit": "%"}]}]}
